pEC50: −log10 of the molar value.

In the assay the target is T1, FXR (Homo sapiens, UniProt Q96RI1).
T1 construct: expressed in transfected cells
T1 sequence (Q96RI1 1-486): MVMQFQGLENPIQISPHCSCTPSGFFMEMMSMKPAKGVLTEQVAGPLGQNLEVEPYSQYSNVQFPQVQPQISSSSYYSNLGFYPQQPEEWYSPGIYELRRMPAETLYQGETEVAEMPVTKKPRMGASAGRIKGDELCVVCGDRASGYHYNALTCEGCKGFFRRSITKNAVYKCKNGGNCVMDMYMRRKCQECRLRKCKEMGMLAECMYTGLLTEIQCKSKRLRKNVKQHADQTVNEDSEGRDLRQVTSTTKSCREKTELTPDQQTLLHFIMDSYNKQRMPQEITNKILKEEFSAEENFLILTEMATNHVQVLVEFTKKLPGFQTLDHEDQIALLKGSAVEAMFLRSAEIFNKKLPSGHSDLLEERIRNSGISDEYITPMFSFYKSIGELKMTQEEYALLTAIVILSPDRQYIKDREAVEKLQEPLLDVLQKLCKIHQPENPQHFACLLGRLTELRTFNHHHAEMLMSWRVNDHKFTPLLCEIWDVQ
Description: FXR agonist transactivation assay (luciferase reporter). Format: cell-based. To be noted: transiently transfected cells, 18 h stimulation with test compound, luciferase normalized to Renilla. How it is done:
Example 21: FXR Agonist Transactivation Assay
For the transactivation assay, cells were transiently transfected with 100 ng of reporter vector and 10 ng of expression plasmid. Forty nanograms of pGL4.74 was used as internal control for transfection efficiency. The pGEM vector was added to normalize the amounts of DNA transfected in each assay (2 μg). All transfections were performed using FuGENE HD (Roche, Mannheim, Germany) according to the manufacturer's protocol. Twenty-four hours after transfection, cells were stimulated with increasing concentrations of the test compounds for further 18 h. Control cultures receive vehicle (0.1% DMSO) alone. Luciferase values were normalized with Renilla reniformis luciferase units, for transfection efficiency.
For `CC(C)OC(=O)C1=CN(C(=O)c2ccc(Cl)c(Cl)c2)CC(C)(C)c2c1[nH]c1ncc(Cl)cc21` [Compound 9, Propan-2-yl 4-chloro-12-(3,4-dichlorobenzoyl)-14,14-dimethyl-6,8,12-triazatricyclo[7.5.0.02,7]tetradeca-1(9),2,4,6,10-pentaene-10-carboxylate], the negative logarithm of the EC50 (pEC50) is 5.00 to 6.00. Next, `CC(C)OC(=O)C1=CN(C(=O)c2ccc(F)c(F)c2)CC(C)(C)c2c1[nH]c1ncc(Cl)cc21` [Compound 10, propan-2-yl 4-chloro-12-(3,4-difluorobenzoyl)-14,14-dimethyl-6,8,12-triazatricyclo[7.5.0.02,7]tetradeca-1(9),2,4,6,10-pentaene-10-carboxylate]: more than 6.00; `CC(C)OC(=O)C1=CN(C(=O)c2ccc(F)cc2)CC(C)(C)c2c1[nH]c1ncc(Cl)cc21` [Compound 11, propan-2-yl 4-chloro-12-(4-fluorobenzoyl)-14,14-dimethyl-6,8,12-triazatricyclo[7.5.0.02,7]tetradeca-1(9),2,4,6,10-pentaene-10-carboxylate]: 5.00 to 6.00; `CC(C)OC(=O)C1=CN(C(=O)c2ccc(F)c(F)c2)CC(C)(C)c2c1[nH]c1cc(Cl)cnc21` [Compound 22, Propan-2-yl 5-chloro-12-(3,4-difluorobenzoyl)-14,14-dimethyl-3,8,12-triazatricyclo[7.5.0.02,7]tetradeca-1(9),2,4,6,10-pentaene-10-carboxylate]: more than 6.00. For `CC(C)OC(=O)C1=CN(C(=O)c2ccc(F)c(F)c2)CC(C)(C)c2c1[nH]c1cc(F)cnc21` [Compound 33] the value was more than 6.00; for `COc1ccc2[nH]c3c(c2n1)C(C)(C)CN(C(=O)c1ccc(F)c(F)c1)C=C3C(=O)OC(C)C` [Compound 42, Propan-2-yl 12-(3,4-difluorobenzoyl)-14,14-dimethyl-4-methoxy-3,8,12-triazatricyclo[7.5.0.02,7]tetradeca-1(9),2,4,6,10-pentaene-10-carboxylate], more than 6.00; for `COc1ccc2[nH]c3c(c2n1)C(C)(C)CN(C(=O)c1ccc(F)cc1)C=C3C(=O)OC(C)C` [Compound 43, propan-2-yl 12-(4-fluorobenzoyl)-14,14-dimethyl-4-methoxy-3,8,12-triazatricyclo[7.5.0.02,7]tetradeca-1(9),2,4,6,10-pentaene-10-carboxylate], more than 6.00. Next, `CC(C)OC(=O)C1=CN(C(=O)c2ccc(F)c(F)c2)CC(C)(C)c2c1[nH]c1cccnc21` [Compound 55, Propan-2-yl 12-(3,4-difluorobenzoyl)-14,14-dimethyl-3,8,12-triazatricyclo[7.5.0.02,7]tetradeca-1(9),2,4,6,10-pentaene-10-carboxylate]: more than 6.00. The molecule `CCOC(=O)C1=CN(C(=O)c2ccc(F)c(F)c2)CC(C)(C)c2c1[nH]c1cccnc21` [Compound 56, eth-2-yl 12-(3,4-difluorobenzoyl)-14,14-dimethyl-3,8,12-triazatricyclo[7.5.0.02,7]tetradeca-1(9),2,4,6,10-pentaene-10-carboxylate] gave a pEC50 of more than 6.00. For `CC(C)OC(=O)C1=CN(C(=O)c2ccc(F)c(F)c2)CC(C)(C)c2c1[nH]c1ncccc21` [Compound 57, propan-2-yl 12-(3,4-difluorobenzoyl)-14,14-dimethyl-6,8,12-triazatricyclo[7.5.0.02,7]tetradeca-1(9),2,4,6,10-pentaene-10-carboxylate] the value was more than 6.00; for `CCOC(=O)C1=CN(C(=O)c2ccc(F)c(F)c2)CC(C)(C)c2c1[nH]c1ncccc21` [Compound 58, eth-2-yl 12-(3,4-difluorobenzoyl)-14,14-dimethyl-6,8,12-triazatricyclo[7.5.0.02,7]tetradeca-1(9),2,4,6,10-pentaene-10-carboxylate], more than 6.00. Molecule `CC(C)OC(=O)C1=CN(C(=O)c2ccc(F)c(F)c2)CC(C)(C)c2c1[nH]c1ncc(F)cc21` [Compound 59, propan-2-yl 4-fluoro-12-(3,4-difluorobenzoyl)-14,14-dimethyl-6,8,12-triazatricyclo[7.5.0.02,7]tetradeca-1(9),2,4,6,10-pentaene-10-carboxylate] had a negative logarithm of the EC50 (pEC50) of more than 6.00.

With `CC(C)OC(=O)C1=CN(C(=O)c2ccc(F)c(F)c2)CC(C)(C)c2c1[nH]c1cc(OCCO)c(Cl)nc21` [Compound 72, Propan-2-yl 12-(3,4-difluorobenzoyl)-14,14-dimethyl-5-(2-hydroxyethoxy)-4-chloro-3,8,12-triazatricyclo[7.5.0.02,7]tetradeca-1(9),2,4,6,10-pentaene-10-carboxylate], the pEC50 was 5.00 to 6.00.

With `CC(C)OC(=O)C1=CN(C(=O)c2ccc(F)c(F)c2)CC(C)(C)c2c1[nH]c1ccc(OCCO)nc21` [Compound 84, Propan-2-yl 12-(3,4-difluorobenzoyl)-14,14-dimethyl-4-(2-hydroxyethoxy)-3,8,12-triazatricyclo[7.5.0.02,7]tetradeca-1(9),2,4,6,10-pentaene-10-carboxylate], the pEC50 was more than 6.00. Next, `CC(C)NC(=O)C1=CN(C(=O)c2ccc(F)c(F)c2)CC(C)(C)c2c1[nH]c1cc(Cl)cnc21` [Compound 85, 3-chloro-8-(3,4-difluorobenzoyl)-N-isopropyl-10,10-dimethyl-5,8,9,10-tetrahydropyrido[2′,3′:4,5]pyrrolo[2,3-d]azepine-6-carboxamide]: more than 6.00; `COc1ccc2[nH]c3c(c2n1)C(C)(C)CN(C(=O)c1ccc(OCCN2CCOCC2)cc1)C=C3C(=O)OC(C)C` [Compound 91, propan-2-yl 12-(4-(2-morpholinoethoxy)benzoyl)-14,14-dimethyl-4-(methoxy)-3,8,12-triazatricyclo[7.5.0.02,7]tetradeca-1(9),2,4,6,10-pentaene-10-carboxylate]: more than 6.00; `COc1nc2c3c([nH]c2cc1Cl)C(C(=O)OC(C)C)=CN(C(=O)c1ccc(F)c(F)c1)CC3(C)C` [Compound 101, propan-2-yl 5-chloro-4-methoxy-12-(3,4-difluorobenzoyl)-14,14-dimethyl-3,8,12-triazatricyclo[7.5.0.02,7]tetradeca-1(9),2,4,6,10-pentaene-10-carboxylate]: more than 6.00. For “propan-2-yl 4-chloro-12-(4-(2-morpholinoethoxy)benzoyl)-14,14-dimethyl-6,8,12-triazatricyclo[7.5.0.02,7]tetradeca-1(9),2,4,6,10-pentaene-10-carboxylate [Compound 89]” the value was more than 6.00.

These data come from patent US10793577B2, “Fused bicyclic compounds for the treatment of disease” (AKARNA THERAPEUTICS, LTD., priority 2014, dated 2020).
